Experiment [1] addresses T1, HCV genotype 1b (BK) NS3 modified enzyme with a R155K mutation (Hepatitis C virus genotype 1b, UniProt P26663, R1181K).
T1 construct: HCV genotype 1b (BK) NS3 modified enzyme
Put plainly: HCV NS3 protease time-resolved fluorescence (TRF) assay, genotype 1b R155K. The format is biochemical. The note with it: Ki 1b R155K. The method, boiled down:
(§1)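 Inhibitor titrations are mixed with NS3/NS4A in pH 7.5 HEPES buffer containing 10 mM DTT and 15% glycerol for 10 min before substrate (25 nM final) is added. After 6 h at room temperature, delayed fluorescence is read and fitted to a four-parameter curve for IC50.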

The target in experiment [2] is HCV NS3 protease genotype 3a (3A-1) (Hepatitis C virus genotype 3a, UniProt Q81258). Put plainly: HCV NS3 protease time-resolved fluorescence (TRF) assay, genotype 3a. The format is biochemical. The conditions noted are these: Ki 3a. The method, boiled down: as §1
[3] abbreviates: genotype 1b (BK) NS3 R155K, single value.
[4] abbreviates: first of two values printed in the cell (not explained).
The mark [5] stands for this setting: second of two values printed in the cell (not explained).

Among the data in patent US9328138B2 (priority 2011, dated 2016) are Ki values, retold here.

A word on the Ki: it is a dissociation constant, usually derived from enzyme kinetics or from competition with a known ligand. A higher Ki goes with a looser hold on the target.

Where a name gives a salt, the structure may show the parent alone.

Regarding `C=C[C@@H]1C[C@]1(NC(=O)[C@@H]1C[C@@H]2CN1C(=O)[C@H](C1CCCC1)NC(=O)O[C@@H]1C[C@H]1CC/C=C/Cc1c(nc3ccccc3c1OC)O2)C(=O)NS(=O)(=O)C1CC1` [Example 11, (1aR,5S,10R,19E,22aR)-5-cyclo pentyl-N-{(1R,2S)-1-[(cyclopropylsulfonyl)carbamoyl]-2-ethenylcyclopropyl}-17-methoxy-3,6-dioxo-1,1a, 3,4,5,6,9,10,18,21,22,22a-dodeca hydro-8H-7,10-methanocyclopropa[18,19][1,10,3,6] dioxadiazacyclononadecino[11,12-b] quinoline-8-carboxamide], the inhibition constant (Ki) in experiment [1] (setting [3]) was found to be 260 pM; in experiment [2], 11000 pM.
For `C=C[C@@H]1C[C@]1(NC(=O)[C@@H]1C[C@@H]2CN1C(=O)[C@H](C(C)(C)C)NC(=O)O[C@@H]1CCC[C@H]1CC/C=C/Cc1c(nc3ccccc3c1OCCN1CCOCC1)O2)C(=O)NS(=O)(=O)C1CC1` [Example 51, (3aR,7S,10S,12R,21E,24aS)-7-tert-butyl-N-{(1R,2S)-1-[(cyclopropylsulfonyl)carbamoyl]-2-ethenylcyclopropyl}-19-[2-(morpholin-4-yl)ethoxy]-5,8-dioxo-1,2,3,3a,5,6,7,8,11,12, 20,23,24,24a-tetradeca hydro-10H-9,12-methanocyclopenta[18,19][1,10,3,6] dioxadiazacyclononadecino[11,12-b] quinoline-10-carboxamide], the figures for the Ki in experiment [1] (setting [3]) and in experiment [2] were 210 pM and 1900 pM, respectively.
Turning to `C=C[C@@H]1C[C@]1(NC(=O)[C@@H]1C[C@@H]2CN1C(=O)[C@H](C(C)(C)C)NC(=O)O[C@@H]1C[C@H]1CCCCCc1c(nc3ccccc3c1OC1C3COCC1CN(CC)C3)O2)C(=O)NS(=O)(=O)C1(C)CC1` (stereo partly drawn) [Example 260, (1aR,5S,8S,10R,22aR)-5-tert-butyl-N-[(1R,2S)-2-ethenyl-1-{[(1-methylcyclopropyl)sulfonyl]carbamoyl}cyclopropyl]-17-[(7-ethyl-3-oxa-7-azabicyclo[3.3.1]non-9-yl)oxy]-3,6-dioxo-1,1a,3,4,5,6,9,10,18,19,20,21,22,22a-tetradecahydro-8H-7,10-methanocyclopropa[18,19][1,10,3,6]dioxadiazacyclononadecino[11,12-b]quinoline-8-carboxamide], the inhibition constant (Ki) came out at 19 pM in experiment [1] (setting [4]), 93 pM in experiment [1] (setting [5]) and 2400 pM in experiment [2].
In the case of `C=C[C@@H]1C[C@]1(NC(=O)[C@@H]1C[C@@H]2CN1C(=O)[C@H](C(C)(C)C)NC(=O)O[C@@H]1C[C@H]1CCCCCc1c(nc3c(F)cccc3c1OCCn1ccnc1)O2)C(=O)NS(=O)(=O)C1(C)CC1` [Example 214, (1aR,5S,8S,10R,22aR)-5-tert-butyl-N-[(1R,2S)-2-ethenyl-1-{[(1-methylcyclopropyl)sulfonyl]carbamoyl}cyclopropyl]-13-fluoro-17-[2-(1H-imidazol-1-yl)ethoxy]-3,6-dioxo-1,1a,3,4,5,6,9,10,18,19,20,21,22,22a-tetradecahydro-8H-7,10-methanocyclopropa[18,19][1,10,3,6] dioxadiazacyclononadecino[11,12-b]quinoline-8-carboxamide], the results for the Ki in experiment [1] (setting [3]) and in experiment [2] were 21 pM and 1200 pM, respectively.
In the same order, the values of `C=C[C@@H]1C[C@]1(NC(=O)[C@@H]1C[C@@H]2CN1C(=O)[C@H](C1CCCCC1)NC(=O)O[C@@H]1C[C@H]1CCCCCc1c(nc3ccccc3c1OCCCN1CCN(S(C)(=O)=O)CC1)O2)C(=O)NS(=O)(=O)C1(C)CC1` [Example 165, (1aR,5S,8S,10R,22aR)-5-cyclohexyl-N-[(1R,2S)-2-ethenyl-1-{[(1-methylcyclopropyl)sulfonyl]carbamoyl}cyclopropyl]-17-{3-[4-(methylsulfonyl)piperazin-1-yl]propoxy}-3,6-dioxo-1,1a,3,4,5,6,9,10, 18,19,20,21,22,22a-tetradecahydro-8H-7,10-methanocyclopropa[18,19][1,10,3,6] dioxadiazacyclononadecino[11,12-b] quinoline-8-carboxamide] are 240 pM and 2800 pM.
In the same order, the values of `C=C[C@@H]1C[C@]1(NC(=O)[C@@H]1C[C@@H]2CN1C(=O)[C@H](C(C)(C)C)NC(=O)O[C@@H]1C[C@H]1CCCCCc1c(nc3ccccc3c1OCC1CN(C(=O)OC(C)(C)C)C1)O2)C(=O)NS(=O)(=O)C1(C)CC1` [Example 142, tert-butyl 3-({[(1aR,5S,8S,10R, 22aR)-5-tert-butyl-8-{[(1R,2S)-2-ethenyl-1-{[(1-methylcyclopropyl)sulfonyl]carbamoyl}cyclopropyl]carbamoyl}-3,6-dioxo-1,1a,3,4,5,6,9,10,18,19,20,21,22,22a-tetradeca hydro-8H-7,10-methanocyclopropa[18,19][1,10,3,6]dioxadiazacyclononadecino [11,12-b]quinolin-17-yl]oxy}methyl) azetidine-1-carboxylate] are 700 pM and 15000 pM.
In the same order, the values of `C=C[C@@H]1C[C@]1(NC(=O)[C@@H]1C[C@@H]2CN1C(=O)[C@H](C(C)(C)C)NC(=O)O[C@@H]1C[C@H]1CCCCCc1c(nc3ccccc3c1OCCN1CCOC(C)(C)C1)O2)C(=O)NS(=O)(=O)C1(C)CC1` [Example 173, (1aR,5S,8S,10R,22aR)-5-tert-butyl-17-[2-(2,2-dimethylmorpholin-4-yl)ethoxy]-N-[(1R,2S)-2-ethenyl-1-{[(1-methylcyclopropyl)sulfonyl]carbamoyl}cyclopropyl]-3,6-dioxo-1,1a,3,4,5,6,9,10,18,19,20,21, 22,22a-tetradecahydro-8H-7,10-methanocyclopropa[18,19][1,10,3,6] dioxadiazacyclononadecino[11,12-b] quinoline-8-carboxamide] are 340 pM and 9500 pM.
As for `C=C[C@@H]1C[C@]1(NC(=O)[C@@H]1C[C@@H]2CN1C(=O)[C@H](C1CCCC1)NC(=O)O[C@@H]1CCC[C@H]1CC/C=C/Cc1c(nc3ccccc3c1OCCCN1CCCC1)O2)C(=O)NS(=O)(=O)C1(C)CC1` [Example 54, (3aR,7S,10S,12R,21E,24aS)-7-cyclopentyl-N-[(1R,2S)-2-ethenyl-1-{[(1-methylcyclopropyl)sulfonyl]carbamoyl}cyclopropyl]-5,8-dioxo-19-[3-(pyrrolidin-1-yl)propoxy]-1,2,3,3a,5,6,7,8,11,12,20,23,24,24a-tetradecahydro-10H-9,12-methanocyclopenta[18,19][1,10,3,6] dioxadiazacyclononadecino[11,12-b] quinoline-10-carboxamide], the inhibitory constant (Ki) in experiment [1] (setting [3]) is 20 pM; in experiment [2], 450 pM.
For `C=C[C@@H]1C[C@]1(NC(=O)[C@@H]1C[C@@H]2CN1C(=O)[C@H](C(C)(C)C)NC(=O)O[C@@H]1C[C@H]1CCCCCc1c(nc3ccccc3c1OCC1CCN(CC)CC1)O2)C(=O)NS(=O)(=O)C1(C)CC1` [Example 227, (1aR,5S,8S,10R,22aR)-5-tert-butyl-N-[(1R,2S)-2-ethenyl-1-{[(1-methylcyclopropyl)sulfonyl]carbamoyl}cyclopropyl]-17-[(1-ethylpiperidin-4-yl)methoxy]-3,6-dioxo-1,1a,3,4,5,6,9,10,18,19,20,21,22,22a-tetradecahydro-8H-7,10-methanocyclopropa[18,19][1,10,3,6] dioxadiazacyclononadecino[11,12-b]quinoline-8-carboxamide] the same measures were 95 pM and 360 pM.
On to `C=C[C@@H]1C[C@]1(NC(=O)[C@@H]1C[C@@H]2CN1C(=O)[C@H](C1CCCC1)NC(=O)O[C@@H]1C[C@H]1CCCCCc1c(nc3ccccc3c1OCCN1CCOCC1)O2)C(=O)NS(=O)(=O)C1(C)CC1` [Example 121, (1aR,5S,8S,10R,22aR)-5-cyclopentyl-N-[(1R,2S)-2-ethenyl-1-{[(1-methylcyclopropyl)sulfonyl]carbamoyl}cyclopropyl]-17-[2-(morpholin-4-yl)ethoxy]-3,6-dioxo-1,1a,3,4,5,6,9,10,18,19,20,21,22, 22a-tetradeca hydro-8H-7,10-methanocyclopropa[18,19][1,10,3,6] dioxadiazacyclononadecino [11,12-b]quinoline-8-carboxamide], for which the results for the Ki in experiment [1] (setting [3]) and in experiment [2] were 380 pM and 12000 pM, respectively.
`C=C[C@@H]1C[C@]1(NC(=O)[C@@H]1C[C@@H]2CN1C(=O)[C@H](C1CCCCC1)NC(=O)O[C@@H]1C[C@H]1CCCCCc1c(nc3ccccc3c1OC1CCN(CC)CC1)O2)C(=O)NS(=O)(=O)C1(C)CC1` [Example 239, 4-{[(1aR,5S,8S,10R,22aR)-5-cyclohexyl-8-{[(1R,2S)-2-ethenyl-1-{[(1-methylcyclopropyl)sulfonyl]carbamoyl}cyclopropyl]carbamoyl}-3,6-dioxo-1,1a,3,4,5,6,9,10,18,19,20,21,22,22a-tetradecahydro-8H-7,10-methanocyclopropa[18,19][1,10,3,6]dioxadiazacyclononadecino[11,12-b]quinolin-17-yl]oxy}-1-ethylpiperidinium formate]: the Ki in experiment [1] (setting [4]) was 16 pM; in experiment [1] (setting [5]) it was 64 pM; in experiment [2], 278 pM.
For the compound `C=C[C@@H]1C[C@]1(NC(=O)[C@@H]1C[C@@H]2CN1C(=O)[C@H](C1Cc3ccccc3C1)NC(=O)O[C@@H]1C[C@H]1CCCCCc1c(nc3ccccc3c1OCCCN(C)C)O2)C(=O)NS(=O)(=O)C1(C)CC1` [Example 233, (1aR,5S,8S,10R,22aR)-5-(2,3-dihydro-1H-inden-2-yl)-17-[3-(dimethylamino)propoxy]-N-[(1R,2S)-2-ethenyl-1-{[(1-methylcyclopropyl)sulfonyl]carbamoyl}cyclopropyl]-3,6-dioxo-1,1a,3,4,5,6,9,10,18,19,20,21,22,22a-tetradecahydro-8H-7,10-methanocyclopropa[18,19][1,10,3,6]dioxadiazacyclononadecino[11,12-b]quinoline-8-carboxamide], the Ki in experiment [1] (setting [4]) was 15 pM; in experiment [1] (setting [5]), 80 pM; in experiment [2] it was 4200 pM.
